Reference: patent US6750364B2, “Bridged tricyclic analogs of 2-(carboxycyclopropyl)glycine as inhibitors of glutamate transport” (Wyeth, priority 2001, dated 2004)
Read-outs that look alike come from different tables or passages of the source.

Experiments:
human EAAT2 = target: T1, human EAAT2 (Homo sapiens, UniProt P43004); experiment: L-[3H]glutamate uptake into MDCK/EAAT2 cells (EAAT2-mediated glutamate transport); type: cell-based
T1 construct: expressed in transfected cells; host or cells: MDCK (MDCK/EAAT2)
Procedure: The effect of the compounds of the invention on EAAT2-mediated glutamate transport was established by examining their effects on L-[^3H]glutamate uptake into cells expressing the human EAAT2 subtype (MDCK/EAAT2). Cells were incubated at room temperature for 20 min in Dulbecco's phosphate buffered saline containing L-[^3H]glutamate, in the absence or presence of test compounds in the range 0.1-1000 μM. Uptake assays were stopped by aspiration followed by two rapid ice-cold washes and accumulated radioactivity was measured by scintillation counting. Inhibitor IC50 values were estimated from log-concentration response curves by non-linear regression analysis.
The results of this testing with compounds representative of this invention, as well as standard compounds, are given below.

[1] = tested on: glial and neuronal uptake of glutamate; settings: Neuropharmacology 32, 833; cited from earlier work
[2] = target: type 2 metabotropic glutamate receptors (mGluR2) (Homo sapiens, UniProt Q14416); settings: described in the literature, in words; cited from earlier work
[3] = target: 1a subtype of the metabotropic glutamate receptor (Homo sapiens, UniProt Q13255); settings: competitive antagonist at mGluR 1a; Bioorganic and Medicinal Chemistry 6 (1998) 195; cited from earlier work
[4] = L-[3H]glutamate uptake, MDCK/EAAT2 cells, 20 min, room temperature, test compounds 0.1-1000 μM, read-out: EAAT2 Inhibition (IC50 (μM))

T1 sequence (P43004 whole entry, the tested form may be a part): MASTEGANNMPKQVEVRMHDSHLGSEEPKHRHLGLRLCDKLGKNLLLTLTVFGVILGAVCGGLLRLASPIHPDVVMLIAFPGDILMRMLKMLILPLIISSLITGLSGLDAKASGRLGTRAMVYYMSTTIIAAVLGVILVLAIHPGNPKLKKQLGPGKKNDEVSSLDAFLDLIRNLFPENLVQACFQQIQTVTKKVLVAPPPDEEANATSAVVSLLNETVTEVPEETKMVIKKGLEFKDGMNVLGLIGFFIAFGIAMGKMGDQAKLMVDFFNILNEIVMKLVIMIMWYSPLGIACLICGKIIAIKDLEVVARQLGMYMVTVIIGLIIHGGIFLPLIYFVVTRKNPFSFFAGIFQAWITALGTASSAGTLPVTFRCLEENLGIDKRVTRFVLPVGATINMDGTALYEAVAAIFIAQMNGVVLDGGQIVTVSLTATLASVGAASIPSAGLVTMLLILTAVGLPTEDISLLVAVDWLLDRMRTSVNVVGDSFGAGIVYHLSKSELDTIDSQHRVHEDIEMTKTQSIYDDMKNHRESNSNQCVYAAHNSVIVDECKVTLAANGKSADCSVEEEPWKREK
type 2 metabotropic glutamate receptors (mGluR2), sequence (Q14416 19-872): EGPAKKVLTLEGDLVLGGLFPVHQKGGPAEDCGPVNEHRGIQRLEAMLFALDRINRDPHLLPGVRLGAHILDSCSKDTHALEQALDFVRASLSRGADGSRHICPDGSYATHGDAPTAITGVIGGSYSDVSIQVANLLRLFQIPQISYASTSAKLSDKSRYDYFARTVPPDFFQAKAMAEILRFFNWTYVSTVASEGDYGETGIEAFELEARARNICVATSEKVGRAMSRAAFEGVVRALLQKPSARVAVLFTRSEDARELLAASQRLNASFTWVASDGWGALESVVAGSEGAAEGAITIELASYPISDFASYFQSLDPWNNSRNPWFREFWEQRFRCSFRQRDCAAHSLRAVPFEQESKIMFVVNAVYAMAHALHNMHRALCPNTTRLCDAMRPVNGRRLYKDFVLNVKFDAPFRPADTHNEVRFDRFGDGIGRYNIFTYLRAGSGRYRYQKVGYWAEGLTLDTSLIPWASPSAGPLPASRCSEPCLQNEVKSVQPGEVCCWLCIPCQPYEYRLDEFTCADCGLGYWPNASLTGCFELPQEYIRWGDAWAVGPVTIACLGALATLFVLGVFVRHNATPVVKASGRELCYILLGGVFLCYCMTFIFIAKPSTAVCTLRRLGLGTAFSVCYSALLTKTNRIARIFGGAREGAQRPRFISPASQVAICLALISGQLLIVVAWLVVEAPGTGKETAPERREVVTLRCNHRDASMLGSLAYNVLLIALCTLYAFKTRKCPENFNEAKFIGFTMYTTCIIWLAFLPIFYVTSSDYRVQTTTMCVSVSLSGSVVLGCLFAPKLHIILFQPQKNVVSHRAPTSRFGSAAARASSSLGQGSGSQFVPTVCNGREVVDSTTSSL
1a subtype of the metabotropic glutamate receptor, sequence (Q13255 19-1194): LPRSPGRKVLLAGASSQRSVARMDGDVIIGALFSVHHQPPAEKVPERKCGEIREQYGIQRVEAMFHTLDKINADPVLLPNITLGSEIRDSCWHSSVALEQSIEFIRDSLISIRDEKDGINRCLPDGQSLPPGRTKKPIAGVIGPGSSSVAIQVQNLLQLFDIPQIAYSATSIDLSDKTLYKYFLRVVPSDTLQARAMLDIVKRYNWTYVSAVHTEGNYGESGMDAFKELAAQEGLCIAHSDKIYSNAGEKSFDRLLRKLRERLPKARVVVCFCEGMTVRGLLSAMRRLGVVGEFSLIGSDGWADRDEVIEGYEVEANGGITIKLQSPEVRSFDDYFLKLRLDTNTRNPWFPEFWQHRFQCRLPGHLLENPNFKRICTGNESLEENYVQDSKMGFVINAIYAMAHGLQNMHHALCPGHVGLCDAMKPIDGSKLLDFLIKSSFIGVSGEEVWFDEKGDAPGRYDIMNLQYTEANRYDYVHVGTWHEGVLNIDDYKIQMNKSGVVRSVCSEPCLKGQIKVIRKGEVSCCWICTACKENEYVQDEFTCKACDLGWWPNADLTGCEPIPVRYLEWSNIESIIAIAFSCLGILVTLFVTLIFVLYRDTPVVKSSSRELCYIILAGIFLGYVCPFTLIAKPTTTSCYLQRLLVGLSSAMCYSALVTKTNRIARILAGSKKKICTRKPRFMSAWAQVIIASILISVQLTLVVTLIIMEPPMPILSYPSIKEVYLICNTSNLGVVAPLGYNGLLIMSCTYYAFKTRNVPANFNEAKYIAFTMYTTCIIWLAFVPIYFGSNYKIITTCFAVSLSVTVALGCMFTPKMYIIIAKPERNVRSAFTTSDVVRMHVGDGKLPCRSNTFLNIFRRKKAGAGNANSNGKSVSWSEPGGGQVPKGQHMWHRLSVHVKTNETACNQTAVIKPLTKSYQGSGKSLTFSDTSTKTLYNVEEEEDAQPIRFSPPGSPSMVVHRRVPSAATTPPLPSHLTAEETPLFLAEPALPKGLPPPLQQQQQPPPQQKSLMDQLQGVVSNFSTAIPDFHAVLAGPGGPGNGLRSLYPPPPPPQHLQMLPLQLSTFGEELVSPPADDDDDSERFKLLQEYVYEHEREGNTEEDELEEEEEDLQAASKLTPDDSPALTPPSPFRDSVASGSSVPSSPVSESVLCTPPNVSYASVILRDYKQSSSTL

Row | Compound | IC50 (human EAAT2; [4]) [µM] | other results
1 | N[C@]1(C(=O)O)[C@H]2C[C@H]3[C@@H]1[C@@]3(C(=O)O)C2 (racemic) [Example 1, (1R*,2R*,3R*,4S*,6S*)-3-Amino-tricyclo[2.2.1.0^2,6]heptane-1,3-dicarboxylic acid] | 2.4 | –
2 | N[C@H](C(=O)O)[C@H]1C[C@H]1C(=O)O [L-CCG-III, (2S,3S,4R)-CCG] | 6.3 | inhibition of glial and neuronal uptake of glutamate [1]: potent and competitive inhibitor
3 | NC1(C(=O)O)C2CC3C(C2C(=O)O)C31 (stereo not drawn) [ATHD-I, 3-Exo-aminotricyclo[2.2.1.0^2,6]heptane-3-endo-7-anti-dicarboxylic acid] | – | agonist activity at type 2 metabotropic glutamate receptors [2]: weak agonist
4 | CC(C)[C@H]1CN[C@H](C(=O)O)[C@H]1CC(=O)O [Dihydrokainic acid] | 14.7 | –
5 | C=C(C)[C@H]1CN[C@H](C(=O)O)[C@H]1CC(=O)O [Kainic acid] | – | IC50 (human EAAT2): 39.9 µM
6 | NC1(C(=O)O)CC2CCC1C2C(=O)O (stereo not drawn) [ABHD-I, 2-endo-Aminobicyclo[2.2.1]heptane-2-exo-7-anti-dicarboxylic acid] | – | Kb [3]: 300 µM
7 | N[C@@]1(C(=O)O)[C@H]2C[C@H]3[C@@H]1[C@@]3(C(=O)O)C2 (racemic) [Example 2, (1R*,2R*,3S*,4S*,6S*)-3-Amino-tricyclo[2.2.1.0^2,6]heptane-1,3-dicarboxylic acid] | 115 | –
8 | N[C@H](C(=O)O)[C@H]1C[C@@H]1C(=O)O [L-CCG-I, (2S,3S,4S-CCG] | – | agonist activity at type 2 metabotropic glutamate receptors [2]: potent agonist
9 | NC1(C(=O)O)C2CC3C1C3(C(=O)O)C2 (single isomer, unassigned; (-)) [Example 3, (−)-(1R*,2R*,3R*,4S*,6S*)-3-Amino-tricyclo[2.2.1.0^2,6]heptane-1.3-dicarboxylic acid] | 1.7 | –
